Laboratory results published in patent US20240109918A1, “HETEROCYCLIC COMPOUNDS AND USES THEREOF” (Kumquat Biosciences Inc., priority 2022, published 2024).

Assays:
KRASG12D = molecular target: T1, KRASG12D (Homo sapiens, UniProt P01116, G12D); experiment: Bio-Biochem-PPI-HTRF Ras-SOS1 interaction assay (KRAS G12D); type: biochemical; details: 5 nM
T1 construct: made in house; host or cells: E. coli BL21 (DE3)
Summary of the method: (§1)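 HTRF measurement of GST-K-Ras (wt or G12D) binding to His-hSOS1, via anti-GST-Eu(K) donor and anti-6His-XL665 acceptor, in HEPES pH 7.4 buffer with NaCl, DTT, BSA and Igepal. Read after ≥10 min; compounds in duplicate from 10 μM down to 0.01 μM. IC50 from 665/620 nm ratio.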

KRASwt = molecular target: T2, KRASwt (Homo sapiens, UniProt P01116); experiment: Bio-Biochem-PPI-HTRF Ras-SOS1 interaction assay (KRAS wt); type: biochemical; details: 5 nM
T2 construct: made in house; host or cells: E. coli BL21 (DE3)
Summary of the method: as §1

T1 sequence (P01116 1-188 isoform P01116-2 G12D): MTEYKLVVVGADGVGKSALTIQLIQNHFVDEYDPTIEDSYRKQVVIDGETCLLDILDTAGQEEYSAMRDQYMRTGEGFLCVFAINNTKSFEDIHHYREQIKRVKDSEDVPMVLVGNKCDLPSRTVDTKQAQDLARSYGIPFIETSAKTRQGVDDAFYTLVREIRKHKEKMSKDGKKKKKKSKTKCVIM
T2 sequence (P01116 1-188 isoform P01116-2): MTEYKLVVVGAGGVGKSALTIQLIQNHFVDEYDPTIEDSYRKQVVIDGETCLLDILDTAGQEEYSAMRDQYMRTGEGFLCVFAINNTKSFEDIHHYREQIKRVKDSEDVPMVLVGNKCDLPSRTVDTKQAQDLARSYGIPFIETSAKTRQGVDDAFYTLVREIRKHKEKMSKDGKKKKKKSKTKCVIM

| Compound | IC50 (KRASG12D) [µM] | IC50 (KRASwt) [µM] |
| --- | --- | --- |
| N#Cc1c(N)sc2c(F)ccc(-c3c(Cl)cc4c(N5CCCC6(CN(C(=O)C(F)Cl)C6)C5)nc(OC[C@@]56CCCN5C[C@H](F)C6)nc4c3F)c12 (stereo partly drawn) [compound 184, 2-amino-4-(6-chloro-4-(2-(2-chloro-2-fluoroacetyl)-2,6-diazaspiro[3.5]nonan-6-yl)-8-fluoro-2-(((2R,7aS)-2-fluorotetrahydro-1H-pyrrolizin-7a(5H)-yl)methoxy)quinazolin-7-yl)-7-fluorobenzo[b]thiophene-3-carbonitrile] | < 5 | < 5 |
| C[C@H](Oc1nc(N2CCCC3(CN(C(=O)C4CC4(F)F)C3)C2)c2cc(Cl)c(-c3ccc(F)c4sc(N)c(C#N)c34)c(F)c2n1)[C@@H]1CCCN1C (stereo partly drawn) [compound 148, 2-amino-4-(6-chloro-4-(2-(2,2-difluorocyclopropane-1-carbonyl)-2,6-diazaspiro[3.5]nonan-6-yl)-8-fluoro-2-((S)-1-((S)-1-methylpyrrolidin-2-yl)ethoxy)quinazolin-7-yl)-7-fluorobenzo[b]thiophene-3-carbonitrile] | < 5 | < 5 |
| C[C@H](Oc1nc(N2CCCC3(CN(C(=O)N4CC(F)(F)C4)C3)C2)c2cc(Cl)c(-c3ccc(F)c4sc(N)c(C#N)c34)c(F)c2n1)[C@@H]1CCCN1C [compound 212, 2-amino-4-(6-chloro-4-(2-(3,3-difluoroazetidine-1-carbonyl)-2,6-diazaspiro[3.5]nonan-6-yl)-8-fluoro-2-((S)-1-((S)-1-methylpyrrolidin-2-yl)ethoxy)quinazolin-7-yl)-7-fluorobenzo[b]thiophene-3-carbonitrile] | < 5 | < 5 |
| C[C@@H]1CN(C(=O)N2CC3(CCCCN(c4nc(OC[C@@]56CCCN5C[C@H](F)C6)nc5c(F)c(-c6ccc(F)c7sc(N)c(C#N)c67)c(Cl)cc45)C3)C2)CCO1 [compound 322, 2-amino-4-(6-chloro-8-fluoro-2-(((2R,7aS)-2-fluorotetrahydro-1H-pyrrolizin-7a(5H)-yl)methoxy)-4-(2-((R)-2-methylmorpholine-4-carbonyl)-2,6-diazaspiro[3.6]decan-6-yl)quinazolin-7-yl)-7-fluorobenzo[b]thiophene-3-carbonitrile] | < 5 | < 5 |
| N#Cc1c(N)sc2c(F)ccc(-c3c(Cl)cc4c(N5CCCCC6(CNC6)C5)nc(OC[C@@]56CCCN5C[C@H](F)C6)nc4c3F)c12 [compound 149, 2-amino-4-(6-chloro-8-fluoro-2-(((2R,7aS)-2-fluorotetrahydro-1H-pyrrolizin-7a(5H)-yl)methoxy)-4-(2,6-diazaspiro[3.6]decan-6-yl)quinazolin-7-yl)-7-fluorobenzo[b]thiophene-3-carbonitrile] | < 5 | < 5 |
| N#Cc1c(N)sc2c(F)ccc(-c3c(Cl)cc4c(N5CCCC6(CN(C=O)C6)C5)nc(OC[C@@]56CCCN5C[C@H](F)C6)nc4c3F)c12 [compound 173, 2-amino-4-(6-chloro-8-fluoro-2-(((2R,7aS)-2-fluorotetrahydro-1H-pyrrolizin-7a(5H)-yl)methoxy)-4-(2-formyl-2,6-diazaspiro[3.5]nonan-6-yl)quinazolin-7-yl)-7-fluorobenzo[b]thiophene-3-carbonitrile] | < 5 | < 5 |
| N#Cc1c(N)sc2c(F)ccc(-c3c(Cl)cc4c(N5CCCCC6(CN(C(=O)C7CCC7(F)F)C6)C5)nc(OC[C@@]56CCCN5C[C@H](F)C6)nc4c3F)c12 (stereo partly drawn) [compound 210, 2-amino-4-(6-chloro-4-(2-(2,2-difluorocyclobutane-1-carbonyl)-2,6-diazaspiro[3.6]decan-6-yl)-8-fluoro-2-(((2R,7aS)-2-fluorotetrahydro-1H-pyrrolizin-7a(5H)-yl)methoxy)quinazolin-7-yl)-7-fluorobenzo[b]thiophene-3-carbonitrile] | < 5 | < 5 |
| N#Cc1c(N)sc2c(F)ccc(-c3c(Cl)cc4c(N5CCCCC6(CN(C(=O)C7CC78CCOC8)C6)C5)nc(OC[C@@]56CCCN5C[C@H](F)C6)nc4c3F)c12 (stereo partly drawn) [compound 267, 4-(4-(2-(5-oxaspiro[2.4]heptane-1-carbonyl)-2,6-diazaspiro[3.6]decan-6-yl)-6-chloro-8-fluoro-2-(((2R,7aS)-2-fluorotetrahydro-1H-pyrrolizin-7a(5H)-yl)methoxy)quinazolin-7-yl)-2-amino-7-fluorobenzo[b] thiophene-3-carbonitrile] | < 5 | < 5 |
| N#Cc1c(N)sc2c(F)ccc(-c3c(Cl)cc4c(N5CCC(CO)CC6(CN(C(=O)[C@@H]7CC7(F)F)C6)C5)nc(OC[C@@]56CCCN5C[C@H](F)C6)nc4c3F)c12 (stereo partly drawn) [compound 332, 2-amino-4-(6-chloro-4-(2-((S)-2,2-difluorocyclopropane-1-carbonyl)-9-(hydroxymethyl)-2,6-diazaspiro[3.6]decan-6-yl)-8-fluoro-2-(((2R,7aS)-2-fluorotetrahydro-1H-pyrrolizin-7a(5H)-yl)methoxy)quinazolin-7-yl)-7-fluorobenzo[b]thiophene-3-carbonitrile] | < 5 | < 5 |
| N#Cc1c(N)sc2c(F)ccc(-c3c(Cl)cc4c(N5CCCCC6(CN(C(=O)C(C7CC7)N7CCOCC7)C6)C5)nc(OC[C@@]56CCCN5C[C@H](F)C6)nc4c3F)c12 (stereo partly drawn) [compound 223, 2-amino-4-(6-chloro-4-(2-(2-cyclopropyl-2-morpholinoacetyl)-2,6-diazaspiro[3.6]decan-6-yl)-8-fluoro-2-(((2R,7aS)-2-fluorotetrahydro-1H-pyrrolizin-7a(5H)-yl)methoxy)quinazolin-7-yl)-7-fluorobenzo[b]thiophene-3-carbonitrile] | < 5 | < 5 |
| N#Cc1c(N)sc2c(F)ccc(-c3c(Cl)cc4c(N5CCN(CC6CC6)C6(CN(C(=O)C(F)F)C6)C5)nc(OC[C@@]56CCCN5C[C@H](F)C6)nc4c3F)c12 [compound 346, 2-amino-4-(6-chloro-4-(5-(cyclopropylmethyl)-2-(2,2-difluoroacetyl)-2,5,8-triazaspiro[3.5]nonan-8-yl)-8-fluoro-2-(((2R,7aS)-2-fluorotetrahydro-1H-pyrrolizin-7a(5H)-yl)methoxy)quinazolin-7-yl)-7-fluorobenzo[b]thiophene-3-carbonitrile] | < 5 | < 5 |
| N#Cc1c(N)sc2c(F)ccc(-c3c(Cl)cc4c(N5CCCCC6(CN(C=O)C6)C5)nc(OC[C@@]56CCCN5C[C@H](F)C6)nc4c3F)c12 [compound 271, 2-amino-4-(6-chloro-8-fluoro-2-(((2R,7aS)-2-fluorotetrahydro-1H-pyrrolizin-7a(5H)-yl)methoxy)-4-(2-formyl-2,6-diazaspiro[3.6]decan-6-yl)quinazolin-7-yl)-7-fluorobenzo[b]thiophene-3-carbonitrile] | < 5 | < 5 |
| N#Cc1c(N)sc2c(F)ccc(-c3c(Cl)cc4c(N5CCCCC6(CN(C(=O)c7ccnn7CC(F)F)C6)C5)nc(OC[C@@]56CCCN5C[C@H](F)C6)nc4c3F)c12 [compound 208, 2-amino-4-(6-chloro-4-(2-(1-(2,2-difluoroethyl)-1H-pyrazole-5-carbonyl)-2,6-diazaspiro[3.6]decan-6-yl)-8-fluoro-2-(((2R,7aS)-2-fluorotetrahydro-1H-pyrrolizin-7a(5H)-yl)methoxy)quinazolin-7-yl)-7-fluorobenzo[b]thiophene-3-carbonitrile] | < 5 | < 5 |
| N#Cc1c(N)sc2c(F)ccc(-c3c(Cl)cc4c(N5CCCCC6(CN(C(=O)C[C@@H]7CCOC7)C6)C5)nc(OC[C@@]56CCCN5C[C@H](F)C6)nc4c3F)c12 [compound 259, 2-amino-4-(6-chloro-8-fluoro-2-(((2R,7aS)-2-fluorotetrahydro-1H-pyrrolizin-7a(5H)-yl)methoxy)-4-(2-(2-((S)-tetrahydrofuran-3-yl)acetyl)-2,6-diazaspiro[3.6]decan-6-yl)quinazolin-7-yl)-7-fluorobenzo[b]thiophene-3-carbonitrile] | < 5 | < 5 |
| Cc1ccnc(C(C)C)c1-n1c(=O)nc(N2CCOC3(CNC3)C2)c2cc(F)c(-c3ccc(F)c4sc(N)c(C#N)c34)nc21 [compound 108, 2-amino-7-fluoro-4-(6-fluoro-1-(2-isopropyl-4-methylpyridin-3-yl)-2-oxo-4-(5-oxa-2,8-diazaspiro[3.5]nonan-8-yl)-1,2-dihydropyrido[2,3-d]pyrimidin-7-yl)benzo[b]thiophene-3-carbonitrile] | ≥ 5 | ≥ 5 |
| CC1(C(=O)N2CC3(CCCCN(c4nc(OC[C@@]56CCCN5C[C@H](F)C6)nc5c(F)c(-c6ccc(F)c7sc(N)c(C#N)c67)c(Cl)cc45)C3)C2)CC1 [compound 228, 2-amino-4-(6-chloro-8-fluoro-2-(((2R,7aS)-2-fluorotetrahydro-1H-pyrrolizin-7a(5H)-yl)methoxy)-4-(2-(1-methylcyclopropane-1-carbonyl)-2,6-diazaspiro[3.6]decan-6-yl)quinazolin-7-yl)-7-fluorobenzo[b]thiophene-3-carbonitrile] | < 5 | < 5 |
| N#Cc1c(N)sc2c(F)ccc(-c3c(Cl)cc4c(N5CCCCC6(CN(C(=O)[C@H]7C[C@@H]7F)C6)C5)nc(OC[C@@]56CCCN5C[C@H](F)C6)nc4c3F)c12 [compound 284, 2-amino-4-(6-chloro-8-fluoro-4-(2-((1R,2S)-2-fluorocyclopropane-1-carbonyl)-2,6-diazaspiro[3.6]decan-6-yl)-2-(((2R,7aS)-2-fluorotetrahydro-1H-pyrrolizin-7a(5H)-yl)methoxy)quinazolin-7-yl)-7-fluorobenzo[b]thiophene-3-carbonitrile] | < 5 | < 5 |
